According to PMC12090182, “Repurposing of the RIPK1-Selective Benzo[1,4]oxazepin-4-one Scaffold for the Development of a Type III LIMK1/2 Inhibitor” (ACS Chemical Biology, 2025):

What was measured:
Assay in all cases: biochemical
Type in all cases: binding
[1] = biological target: 468 kinases including some pathogenic mutants (Homo sapiens, UniProt P15735); details: PHKG2 (Entrez PHKG2), 100 nM; read-out: Percent Control
[2] = biological target: 468 kinases including some pathogenic mutants (Homo sapiens, UniProt Q9Y2H9); details: MAST1 (Entrez MAST1), 100 nM; read-out: Percent Control
[3] = biological target: 468 kinases including some pathogenic mutants (Homo sapiens, UniProt Q86YV6); details: MYLK4 (Entrez MYLK4), 1000 nM; read-out: Percent Control
[4] = biological target: 468 kinases including some pathogenic mutants (Homo sapiens, UniProt P00519, Y253F); details: read-out: Percent Control
[5] = biological target: 468 kinases including some pathogenic mutants (Homo sapiens, UniProt P42336, C420R); details: read-out: Percent Control
[6] = biological target: 468 kinases including some pathogenic mutants (Homo sapiens, UniProt Q02156); details: PRKCE (Entrez PRKCE), 1000 nM; read-out: Percent Control
[7] = biological target: 468 kinases including some pathogenic mutants (Homo sapiens, UniProt Q9BVS4); details: RIOK2 (Entrez RIOK2), 1000 nM; read-out: Percent Control
[8] = biological target: 468 kinases including some pathogenic mutants (Homo sapiens, UniProt Q9H2K8); details: TAOK3 (Entrez TAOK3), 100 nM; read-out: Percent Control
[9] = biological target: 468 kinases including some pathogenic mutants (Homo sapiens, UniProt Q15208); details: NDR1 (Entrez STK38), 100 nM; read-out: Percent Control
[10] = biological target: 468 kinases including some pathogenic mutants (Homo sapiens, UniProt P33981); details: TTK (Entrez TTK), 100 nM; read-out: Percent Control
[11] = biological target: 468 kinases including some pathogenic mutants (Homo sapiens, UniProt Q9BQI3); details: EIF2AK1 (Entrez EIF2AK1), 100 nM; read-out: Percent Control
[12] = biological target: 468 kinases including some pathogenic mutants (Homo sapiens, UniProt P09619); details: PDGFRB (Entrez PDGFRB), 100 nM; read-out: Percent Control
[13] = biological target: 468 kinases including some pathogenic mutants (Homo sapiens, UniProt Q9H4A3); details: WNK1 (Entrez WNK1), 1000 nM; read-out: Percent Control
[14] = biological target: 468 kinases including some pathogenic mutants (Homo sapiens, UniProt Q9Y6E0); details: MST3 (Entrez STK24), 100 nM; read-out: Percent Control
[15] = biological target: 468 kinases including some pathogenic mutants (Homo sapiens, UniProt P23443); details: S6K1 (Entrez RPS6KB1), 1000 nM; read-out: Percent Control
[16] = biological target: 468 kinases including some pathogenic mutants (Homo sapiens, UniProt P42336); details: PIK3CA (Entrez PIK3CA), 100 nM; read-out: Percent Control
[17] = biological target: 468 kinases including some pathogenic mutants (Homo sapiens, UniProt P15056); details: BRAF (Entrez BRAF), 100 nM; read-out: Percent Control
[18] = biological target: 468 kinases including some pathogenic mutants (Homo sapiens, UniProt P20794); details: MAK (Entrez MAK), 1000 nM; read-out: Percent Control
[19] = biological target: 468 kinases including some pathogenic mutants (Homo sapiens, UniProt Q5VT25); details: MRCKA (Entrez CDC42BPA), 100 nM; read-out: Percent Control
[20] = biological target: 468 kinases including some pathogenic mutants (Homo sapiens, UniProt O75914); details: PAK3 (Entrez PAK3), 100 nM; read-out: Percent Control
[21] = biological target: 468 kinases including some pathogenic mutants (Homo sapiens, UniProt O15264); details: p38-delta (Entrez MAPK13), 1000 nM; read-out: Percent Control
[22] = biological target: 468 kinases including some pathogenic mutants (Homo sapiens, UniProt Q99640); details: PKMYT1 (Entrez PKMYT1), 100 nM; read-out: Percent Control
[23] = biological target: 468 kinases including some pathogenic mutants (Homo sapiens, UniProt O00506); details: YSK1 (Entrez STK25), 1000 nM; read-out: Percent Control
[24] = biological target: 468 kinases including some pathogenic mutants (Homo sapiens, UniProt P45984); details: JNK2 (Entrez MAPK9), 100 nM; read-out: Percent Control
[25] = biological target: 468 kinases including some pathogenic mutants (Homo sapiens, UniProt Q9UIK4); details: DAPK2 (Entrez DAPK2), 100 nM; read-out: Percent Control
[26] = biological target: 468 kinases including some pathogenic mutants (Homo sapiens, UniProt Q15349); details: read-out: Percent Control
[27] = biological target: 468 kinases including some pathogenic mutants (Homo sapiens, UniProt Q15759); details: p38-beta (Entrez MAPK11), 100 nM; read-out: Percent Control
[28] = biological target: 468 kinases including some pathogenic mutants (Homo sapiens, UniProt Q14680); details: MELK (Entrez MELK), 1000 nM; read-out: Percent Control

Sequence of 468 kinases including some pathogenic mutants (Homo sapiens, UniProt Q15349) (Q15349 whole entry, change not shown): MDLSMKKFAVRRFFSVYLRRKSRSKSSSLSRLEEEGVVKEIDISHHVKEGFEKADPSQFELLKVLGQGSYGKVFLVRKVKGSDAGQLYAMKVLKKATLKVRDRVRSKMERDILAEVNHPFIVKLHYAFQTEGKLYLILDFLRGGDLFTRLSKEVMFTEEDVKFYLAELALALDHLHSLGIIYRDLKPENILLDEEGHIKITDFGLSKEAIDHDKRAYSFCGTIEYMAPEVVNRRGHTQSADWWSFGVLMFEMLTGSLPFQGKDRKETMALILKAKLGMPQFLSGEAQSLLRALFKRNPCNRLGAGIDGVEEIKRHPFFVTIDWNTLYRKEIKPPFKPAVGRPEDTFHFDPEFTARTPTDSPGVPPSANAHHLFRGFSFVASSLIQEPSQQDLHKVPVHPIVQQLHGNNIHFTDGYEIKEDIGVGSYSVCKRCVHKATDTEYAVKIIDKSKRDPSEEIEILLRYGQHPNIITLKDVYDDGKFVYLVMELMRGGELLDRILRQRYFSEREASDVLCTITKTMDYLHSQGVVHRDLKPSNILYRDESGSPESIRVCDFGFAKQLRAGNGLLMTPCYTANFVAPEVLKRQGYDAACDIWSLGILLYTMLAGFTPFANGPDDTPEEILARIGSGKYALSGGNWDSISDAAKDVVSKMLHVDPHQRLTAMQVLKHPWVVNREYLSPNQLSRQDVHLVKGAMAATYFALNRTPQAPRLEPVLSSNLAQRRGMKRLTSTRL
Sequence of 468 kinases including some pathogenic mutants (Homo sapiens, UniProt P20794) (P20794 whole entry, change not shown): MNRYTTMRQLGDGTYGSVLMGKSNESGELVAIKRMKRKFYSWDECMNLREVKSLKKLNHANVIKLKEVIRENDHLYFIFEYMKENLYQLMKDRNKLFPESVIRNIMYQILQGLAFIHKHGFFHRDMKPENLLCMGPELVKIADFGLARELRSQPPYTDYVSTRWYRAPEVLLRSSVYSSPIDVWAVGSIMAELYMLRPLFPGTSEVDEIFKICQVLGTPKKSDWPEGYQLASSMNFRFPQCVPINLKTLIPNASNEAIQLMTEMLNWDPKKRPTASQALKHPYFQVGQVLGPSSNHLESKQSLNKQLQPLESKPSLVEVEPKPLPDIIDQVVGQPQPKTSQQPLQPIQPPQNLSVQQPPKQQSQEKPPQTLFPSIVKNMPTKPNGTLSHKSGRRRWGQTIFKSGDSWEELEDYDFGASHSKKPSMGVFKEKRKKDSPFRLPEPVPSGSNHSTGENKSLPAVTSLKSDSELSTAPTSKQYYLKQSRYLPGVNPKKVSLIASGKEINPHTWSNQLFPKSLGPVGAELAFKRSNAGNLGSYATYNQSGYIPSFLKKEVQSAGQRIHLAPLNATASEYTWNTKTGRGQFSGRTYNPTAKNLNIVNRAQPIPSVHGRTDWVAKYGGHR
Sequence of 468 kinases including some pathogenic mutants (Homo sapiens, UniProt Q15759) (Q15759 whole entry, change not shown): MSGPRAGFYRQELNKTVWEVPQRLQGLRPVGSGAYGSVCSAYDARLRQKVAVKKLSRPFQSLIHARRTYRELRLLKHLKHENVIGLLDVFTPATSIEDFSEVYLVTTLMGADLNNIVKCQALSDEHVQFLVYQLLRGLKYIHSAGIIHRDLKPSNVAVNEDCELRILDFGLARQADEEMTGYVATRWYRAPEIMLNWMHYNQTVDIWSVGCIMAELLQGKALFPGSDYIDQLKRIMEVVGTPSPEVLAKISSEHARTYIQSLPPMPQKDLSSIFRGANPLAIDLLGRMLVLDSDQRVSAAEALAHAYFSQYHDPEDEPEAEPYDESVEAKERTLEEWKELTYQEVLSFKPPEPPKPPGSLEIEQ
Sequence of 468 kinases including some pathogenic mutants (Homo sapiens, UniProt P15056) (P15056 whole entry, change not shown): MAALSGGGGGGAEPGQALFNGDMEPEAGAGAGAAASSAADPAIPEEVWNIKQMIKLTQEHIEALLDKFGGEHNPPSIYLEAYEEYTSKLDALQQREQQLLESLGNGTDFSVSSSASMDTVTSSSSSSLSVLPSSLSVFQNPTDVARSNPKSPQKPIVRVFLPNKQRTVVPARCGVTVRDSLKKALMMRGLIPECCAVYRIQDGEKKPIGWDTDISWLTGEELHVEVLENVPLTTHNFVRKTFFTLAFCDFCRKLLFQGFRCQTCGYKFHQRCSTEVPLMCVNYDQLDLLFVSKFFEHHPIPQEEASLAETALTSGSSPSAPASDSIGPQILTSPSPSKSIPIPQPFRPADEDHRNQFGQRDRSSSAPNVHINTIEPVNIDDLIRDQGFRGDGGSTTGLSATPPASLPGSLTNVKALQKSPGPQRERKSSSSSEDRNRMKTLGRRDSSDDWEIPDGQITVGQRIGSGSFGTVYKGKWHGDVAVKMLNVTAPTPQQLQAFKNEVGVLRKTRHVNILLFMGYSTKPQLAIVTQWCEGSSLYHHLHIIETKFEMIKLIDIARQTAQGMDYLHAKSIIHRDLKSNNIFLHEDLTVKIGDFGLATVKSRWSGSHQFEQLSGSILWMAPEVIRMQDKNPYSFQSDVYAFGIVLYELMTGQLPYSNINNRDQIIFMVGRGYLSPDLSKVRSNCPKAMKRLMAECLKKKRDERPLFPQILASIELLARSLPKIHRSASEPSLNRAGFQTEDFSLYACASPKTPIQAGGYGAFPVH
Sequence of 468 kinases including some pathogenic mutants (Homo sapiens, UniProt P23443) (P23443 whole entry, change not shown): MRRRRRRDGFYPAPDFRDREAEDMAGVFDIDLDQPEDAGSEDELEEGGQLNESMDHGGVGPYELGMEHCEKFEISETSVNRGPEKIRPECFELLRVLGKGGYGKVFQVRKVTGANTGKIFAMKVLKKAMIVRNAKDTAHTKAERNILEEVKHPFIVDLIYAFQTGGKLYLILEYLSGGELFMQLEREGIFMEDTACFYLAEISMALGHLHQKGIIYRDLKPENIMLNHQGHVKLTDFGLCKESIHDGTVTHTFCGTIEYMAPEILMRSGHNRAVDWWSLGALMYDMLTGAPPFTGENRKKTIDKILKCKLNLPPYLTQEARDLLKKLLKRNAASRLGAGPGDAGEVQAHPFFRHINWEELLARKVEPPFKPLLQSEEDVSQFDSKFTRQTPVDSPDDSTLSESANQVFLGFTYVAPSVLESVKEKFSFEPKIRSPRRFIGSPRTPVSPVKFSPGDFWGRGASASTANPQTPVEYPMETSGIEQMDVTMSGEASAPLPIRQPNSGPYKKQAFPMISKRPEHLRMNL
Sequence of 468 kinases including some pathogenic mutants (Homo sapiens, UniProt O00506) (O00506 whole entry, change not shown): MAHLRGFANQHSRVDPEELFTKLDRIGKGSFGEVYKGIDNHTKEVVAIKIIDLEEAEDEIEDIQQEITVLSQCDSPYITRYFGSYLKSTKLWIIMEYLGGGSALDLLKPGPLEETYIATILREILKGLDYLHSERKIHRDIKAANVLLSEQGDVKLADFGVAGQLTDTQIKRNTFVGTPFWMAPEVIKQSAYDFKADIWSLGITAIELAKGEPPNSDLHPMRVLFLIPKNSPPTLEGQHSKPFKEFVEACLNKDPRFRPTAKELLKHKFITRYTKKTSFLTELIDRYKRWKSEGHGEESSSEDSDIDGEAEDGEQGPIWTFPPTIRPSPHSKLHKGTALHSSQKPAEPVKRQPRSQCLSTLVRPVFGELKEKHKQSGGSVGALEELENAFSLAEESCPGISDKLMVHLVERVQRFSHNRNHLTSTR
Sequence of 468 kinases including some pathogenic mutants (Homo sapiens, UniProt P42336, C420R) (P42336 whole entry C420R): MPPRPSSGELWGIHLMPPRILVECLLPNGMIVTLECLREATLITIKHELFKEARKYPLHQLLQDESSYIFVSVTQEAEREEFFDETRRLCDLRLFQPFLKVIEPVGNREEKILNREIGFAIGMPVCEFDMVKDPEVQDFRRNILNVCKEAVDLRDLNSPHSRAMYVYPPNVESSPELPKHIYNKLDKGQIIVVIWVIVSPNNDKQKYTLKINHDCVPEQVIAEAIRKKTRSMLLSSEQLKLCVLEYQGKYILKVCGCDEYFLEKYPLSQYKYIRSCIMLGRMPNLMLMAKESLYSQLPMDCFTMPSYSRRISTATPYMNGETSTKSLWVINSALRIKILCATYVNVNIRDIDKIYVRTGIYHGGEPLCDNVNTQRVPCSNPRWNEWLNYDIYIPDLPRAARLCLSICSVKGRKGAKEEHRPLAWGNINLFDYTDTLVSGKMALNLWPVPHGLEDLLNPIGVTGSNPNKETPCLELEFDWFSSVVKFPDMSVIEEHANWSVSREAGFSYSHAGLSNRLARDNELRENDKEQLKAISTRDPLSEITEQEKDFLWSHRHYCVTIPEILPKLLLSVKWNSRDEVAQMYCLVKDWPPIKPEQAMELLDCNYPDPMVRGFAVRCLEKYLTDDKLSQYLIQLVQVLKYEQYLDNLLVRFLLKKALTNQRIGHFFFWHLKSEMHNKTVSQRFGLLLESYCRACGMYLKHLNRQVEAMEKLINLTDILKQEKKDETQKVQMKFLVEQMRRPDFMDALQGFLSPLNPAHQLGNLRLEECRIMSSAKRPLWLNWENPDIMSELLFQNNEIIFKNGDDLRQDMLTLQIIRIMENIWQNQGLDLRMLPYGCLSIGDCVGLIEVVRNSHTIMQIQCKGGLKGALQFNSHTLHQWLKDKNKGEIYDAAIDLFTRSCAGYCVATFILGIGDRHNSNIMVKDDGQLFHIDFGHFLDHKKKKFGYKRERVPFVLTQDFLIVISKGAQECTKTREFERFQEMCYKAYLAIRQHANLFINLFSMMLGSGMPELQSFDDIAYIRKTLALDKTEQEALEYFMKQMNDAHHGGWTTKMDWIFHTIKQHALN
Sequence of 468 kinases including some pathogenic mutants (Homo sapiens, UniProt Q15208) (Q15208 whole entry, change not shown): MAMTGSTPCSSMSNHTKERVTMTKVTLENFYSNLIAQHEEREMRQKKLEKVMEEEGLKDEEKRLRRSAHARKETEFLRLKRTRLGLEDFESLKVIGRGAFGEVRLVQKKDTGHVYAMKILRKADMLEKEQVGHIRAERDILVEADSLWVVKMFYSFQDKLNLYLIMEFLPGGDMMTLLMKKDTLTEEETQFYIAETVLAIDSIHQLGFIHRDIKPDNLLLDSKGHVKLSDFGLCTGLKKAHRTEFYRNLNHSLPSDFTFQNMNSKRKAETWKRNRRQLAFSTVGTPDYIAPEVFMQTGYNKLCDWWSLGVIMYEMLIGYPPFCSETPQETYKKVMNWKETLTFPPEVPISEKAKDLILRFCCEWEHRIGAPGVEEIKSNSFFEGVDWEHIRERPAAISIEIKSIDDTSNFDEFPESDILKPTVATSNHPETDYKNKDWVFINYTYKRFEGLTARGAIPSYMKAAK

How did the remaining activity at 0.1 µM [1] turn out when `CN1C(=O)[C@@H](N2CCc3c(nn(Cc4ccccc4)c3C(N)=O)C2=O)COc2cc(Cl)ccc21` [Compound 10, (S)-2-benzyl-6-(8-chloro-5-methyl-4-oxo-2,3,4,5-tetrahydrobenzo[b][1,4]oxazepin-3-yl)-7-oxo-4,5,6,7-tetrahydro-2H-pyrazolo[3,4-c]pyridine-3-carboxamide] was run?
Its remaining activity at 0.1 µM is 62%.

And the remaining activity at 0.1 µM [2]?
The remaining activity at 0.1 µM was 67%.

What about the remaining activity at 1 µM [3] of the same compound?
Its remaining activity at 1 µM is 100%.

What about the remaining activity at 0.1 µM [4] of the same compound?
Its remaining activity at 0.1 µM is 76%.

What about the remaining activity at 0.1 µM [5] of the same compound?
Its remaining activity at 0.1 µM is 88%.

And the remaining activity at 1 µM [6]?
The remaining activity at 1 µM was 100%.

What about the remaining activity at 1 µM [7] of the same compound?
The remaining activity at 1 µM was 100%.

What about the remaining activity at 0.1 µM [8] of the same compound?
The remaining activity at 0.1 µM was 71%.

And the remaining activity at 0.1 µM [9]?
Its remaining activity at 0.1 µM is 86%.

What about the remaining activity at 0.1 µM [10] of the same compound?
The remaining activity at 0.1 µM was 82%.

What about the remaining activity at 0.1 µM [11] of the same compound?
Its remaining activity at 0.1 µM is 100%.

And the remaining activity at 0.1 µM [12]?
The remaining activity at 0.1 µM was 69%.

What about the remaining activity at 1 µM [13] of the same compound?
Its remaining activity at 1 µM is 100%.

And the remaining activity at 0.1 µM [14]?
The remaining activity at 0.1 µM was 97%.

What about the remaining activity at 1 µM [15] of the same compound?
The remaining activity at 1 µM was 100%.

And the remaining activity at 0.1 µM [16]?
Its remaining activity at 0.1 µM is 71%.

What about the remaining activity at 0.1 µM [17] of the same compound?
The remaining activity at 0.1 µM was 58%.

And the remaining activity at 1 µM [18]?
Its remaining activity at 1 µM is 100%.

What about the remaining activity at 0.1 µM [19] of the same compound?
Its remaining activity at 0.1 µM is 73%.

What about the remaining activity at 0.1 µM [20] of the same compound?
The remaining activity at 0.1 µM was 53%.

And the remaining activity at 1 µM [21]?
The remaining activity at 1 µM was 100%.

What about the remaining activity at 0.1 µM [22] of the same compound?
The remaining activity at 0.1 µM was 90%.

And the remaining activity at 1 µM [23]?
The remaining activity at 1 µM was 100%.

What about the remaining activity at 0.1 µM [24] of the same compound?
Its remaining activity at 0.1 µM is 80%.

What about the remaining activity at 0.1 µM [25] of the same compound?
The remaining activity at 0.1 µM was 70%.

And the remaining activity at 0.1 µM ([26]; RSK3(Kin.Dom.1-N-terminal) (Entrez RPS6KA2), 100 nM)?
Its remaining activity at 0.1 µM is 100%.

What about the remaining activity at 1 µM ([26]; RSK3(Kin.Dom.2-C-terminal) (Entrez RPS6KA2), 1000 nM) of the same compound?
The remaining activity at 1 µM was 100%.

What about the remaining activity at 0.1 µM [27] of the same compound?
The remaining activity at 0.1 µM was 100%.

And the remaining activity at 1 µM [28]?
The remaining activity at 1 µM was 100%.
